Earlier results as cited in US20210181182A1, “METHOD FOR IDENTIFICATION OF PERTURBAGENS OF PARTICULAR BIOLOGICAL PROCESSES AND CELL SYSTEMS WITHIN LIVING CELLS” (priority 2018, published 2021).
Counter-ions that a name gives are not always drawn. Like-named read-outs stand apart in the source and are kept apart here. Marks after values point to notes of the source that are not given here.

Tested on: mitochondria membrane potential
Conditions: cited from earlier work
[1] = HepG2, 1-hour incubation at concentrations below 60 μM

| Compound | MMP assay hitCall [1] | MMP assay hitCall |
| --- | --- | --- |
| N#Cc1nc(Cl)c(Cl)c(Cl)c1Cl [3,4,5,6-Tetrachloro-2-pyridinecarbonitrile] | 1 |  |
| CCCN(CC)CC1COC2(CCC(C(C)(C)C)CC2)O1 (stereo not drawn) [Spiroxamine] | 0 |  |
| CCCc1ccc(O)cc1 [4-Propylphenol] | 1 |  |
| CCCCCCCCCCCC[N+](C)(C)C.[Br-] [Dodecyltrimethylammonium bromide] | 1 |  |
| CC(C)(C)C(=O)C(Oc1ccc(Cl)cc1)n1cncn1 (stereo not drawn) [Triadimefon] | 0 |  |
| CC(C)=CCCC(C)=CC=O [3,7-Dimethyl-2,6-octadienal] | 0 |  |
| C=CCOC(=O)/C=C\C(=O)OCC=C [Diprop-2-en-1-yl (2Z)-but-2-enedioate] | 0 |  |
| CNC(=O)Oc1cccc(N=CN(C)C)c1 [Formetanate hydrochloride] | 0 |  |
| O=C(Nc1ccc(Cl)cc1)Nc1ccc(Cl)c(Cl)c1 [Triclocarban] | 1 |  |
| CNC(=O)Oc1cccc2c1OC(C)(C)O2 [Bendiocarb] | 0 |  |
| c1cc(C(c2ccc(OCC3CO3)cc2)c2ccc(OCC3CO3)cc2)ccc1OCC1CO1 (stereo not drawn) [2,2′,2″-[Methanetriyltris(benzene-4,1-diyloxymethanediyl)]trioxirane] | 0 |  |
| COC(=O)c1c(C(F)F)nc(C(F)(F)F)c(C2=NCCS2)c1CC(C)C [Thiazopyr] | 0 |  |
| CN1CCN(c2ccccc2/C=C2\SCCN(c3ccc(Cl)c(Cl)c3)C2=O)CC1 [Elzasonan] | 0 |  |
| Cc1ccc(S(=O)(=O)NC(=O)NN2CCCCCC2)cc1 [Tolazamide, reference compound] | 0 |  |
| C=CC(O)CCCCC (stereo not drawn) [1-Octen-3-ol] | 0 |  |
| COc1ccc(S(=O)(=O)N2C(=O)[C@@](c3ccccc3OC)(N3C[C@H](O)C[C@H]3C(=O)N(C)C)c3cc(Cl)ccc32)c(OC)c1 [Nelivaptan] | 0 |  |
| CCCCCCc1ccc(O)cc1O [4-Hexylresorcinol] | 1 |  |
| Nc1ccc(N=Nc2ccccc2)cc1 [4-Aminoazobenzene] |  | 0 |
| O=C(CCl)c1ccccc1 [2-Chloroacetophenone] | 0* |  |
| N#Cc1cc(I)c(O)c(I)c1 [Ioxynil] | 1 |  |
| CCC(=O)Nc1ccc(Cl)c(Cl)c1 [Propanil] | 1 |  |
| C=CCc1ccc(O)c(OC)c1 [Eugenol] | 0* |  |
| O=C(O)Cc1cc(I)c(Oc2ccc(O)c(I)c2)c(I)c1 [Tiratricol, reference compound] | 0 |  |

| Compound | MMP assay hitCall [1] | MMP assay hitCall |
| --- | --- | --- |
| C=Cc1ccc(OC(C)=O)cc1 [4-Ethenylphenyl acetate] | 0 |  |
| Nc1ccc(/N=N/c2ccccc2)c(N)n1 [Phenazopyridine hydrochloride, reference compound] | 1 |  |
| CCCCCCCCCc1ccc(O)cc1 [4-Nonylphenol] | 1 |  |
| CC(C)Nc1ccc(Nc2ccccc2)cc1 [N-Isopropyl-N′-phenyl-p-phenylenediamine] |  | 0 |
| CCOP(=S)(OCC)SCn1c(=O)oc2cc(Cl)ccc21 [Phosalone] | 1 |  |
| C(=NC1CCCCC1)=NC1CCCCC1 [Dicyclohexylcarbodiimide] | 0* |  |
| CC(C)(C)c1ccc(CCOc2ncnc3ccccc23)cc1 [Fenazaquin] | 0* |  |
| CC(C)=CC1C(C(=O)OCN2C(=O)C3=C(CCCC3)C2=O)C1(C)C (stereo not drawn) [Tetramethrin] | 1 |  |
| COC(=O)c1ccccc1S(=O)(=O)NC(=O)Nc1nc(C)nc(OC)n1 [Metsulfuron-methyl] | 0 |  |
| CN(C)c1ccc(N=O)cc1 [N,N-Dimethyl-4-nitrosoaniline] |  | 0 |
| COC(=O)/C=C\C(=O)OC [Dimethyl maleate] | 0 |  |
| C[Si](Cn1cncn1)(c1ccc(F)cc1)c1ccc(F)cc1 [Flusilazole] | 1 |  |
| Cl.ClCc1ccccn1 [2-(Chloromethyl)pyridine hydrochloride] | 0 |  |
| CCCN(CCOc1c(Cl)cc(Cl)cc1Cl)C(=O)n1ccnc1 [Prochloraz] | 0* |  |
| Oc1ccc(Cl)cc1Cc1ccccc1 [Clorophene] | 1 |  |
| CC1COc2ccccc2N1C(=O)C(Cl)Cl (stereo not drawn) [Benoxacor] | 0 |  |
| Cl.Nc1ccc(-c2ccccc2)cc1 [4-Biphenylamine hydrochloride] | 0 |  |
| CC#C[C@]1(O)CC[C@H]2[C@@H]3CCC4=CC(=O)CCC4=C3[C@@H](c3ccc(N(C)C)cc3)C[C@@]21C [Mifepristone, reference compound] | 1 |  |
| Clc1nc(Cl)nc(Nc2ccccc2Cl)n1 [Anilazine] | 0 |  |
| C=C(C)[C@H]1Cc2c(ccc3c2O[C@@H]2COc4cc(OC)c(OC)cc4[C@@H]2C3=O)O1 [Rotenone, reference compound] | 1 |  |
| C=CC(=O)OCCO [2-Hydroxyethyl acrylate] | 0* |  |
| CON=C(C(=O)OC)c1ccccc1CON=C(C)c1cccc(C(F)(F)F)c1 [Trifloxystrobin] | 1 |  |
| C#CCN1C(=O)COc2cc(F)c(N3C(=O)C4=C(CCCC4)C3=O)cc21 [Flumioxazin] | 0 |  |

| Compound | MMP assay hitCall [1] | MMP assay hitCall |
| --- | --- | --- |
| C=CC(=O)OCCC#N [2-Cyanoethyl prop-2-enoate] | 0 |  |
| N#Cc1cc(Br)c(O)c(Br)c1 [Bromoxynil] | 1 |  |
| Oc1c(Cl)cc(Cl)c(Cl)c1Cc1c(O)c(Cl)cc(Cl)c1Cl [Hexachlorophene] |  | 1 |
| CC(COc1ccc(Oc2ccccc2)cc1)Oc1ccccn1 (stereo not drawn) [Pyriproxyfen] | 0 |  |
| O=C(OC1CCCCC1)c1ccccc1C(=O)OC1CCCCC1 [Dicyclohexyl phthalate] | 1 |  |
| CCC(C)c1cc([N+](=O)[O-])cc([N+](=O)[O-])c1OC(=O)C=C(C)C (stereo not drawn) [Binapacryl] | 1 |  |
| Fc1cccc(Cl)c1CCl [1-Chloro-2-(chloromethyl)-3-fluorobenzene] | 0 |  |
| CCCCCCCCCCCCCC[N+](C)(C)C [Tetradonium bromide] | 0 |  |
| Oc1c(Cl)cc(Cl)cc1Sc1cc(Cl)cc(Cl)c1O [Bithionol, reference compound] | 1 |  |
| Oc1ccc(-c2ccccc2)cc1Cl [2-Chloro-4-phenylphenol] | 1 |  |
| CCN(CC)c1ccc2c(C)cc(=O)oc2c1 [7-Diethylamino-4-methylcoumarin] |  | 1 |
| CCCCCCCCCCCCN1CCCC1=O [1-Dodecyl-2-pyrrolidinone] | 0 |  |
| O=c1[nH]c2ccc([S+]([O-])CCN3CCC(Cc4ccc(F)cc4)CC3)cc2o1 (stereo not drawn) [Besonprodil] | 0 |  |
| COC(C=C(C)CCC=C(C)C)OC [1,1-Dimethoxy-3,7-dimethylocta-2,6-diene] | 0 |  |
| Cc1cc(C2CC2)nc(Nc2ccccc2)n1 [Cyprodinil] | 0 |  |
| COc1ccc(O)c(C(C)(C)C)c1 [2-tert-Butyl-4-methoxyphenol] | 1 |  |
| C1N2CN3CN1CN(C2)C3 [Methenamine, reference compound] | 0 |  |
| CN=C=S [Methyl isothiocyanate] | 0 |  |
| CCOC(=O)NCCOc1ccc(Oc2ccccc2)cc1 [Fenoxycarb] | 0* |  |
| CCc1cccc(CC)c1N(COC)C(=O)CCl [Alachlor] | 0* |  |
| CCC(C)(C)c1cc(O)c(C(C)(C)CC)cc1O [2,5-Bis(2-methylbutan-2-yl)benzene-1,4-diol] | 1 |  |
| CN(C)c1ccc(/N=N/c2ccccc2C(=O)O)cc1 [Methyl red] | 0 |  |
| Oc1cc(Cl)ccc1Oc1ccc(Cl)cc1Cl [Triclosan] | 1 |  |

| Compound | MMP assay hitCall [1] | MMP assay hitCall |
| --- | --- | --- |
| CC(C)(c1ccc(O)cc1)c1ccc(O)cc1 [Bisphenol A] | 1 |  |
| CC(C)Oc1cccc(NC(=O)c2ccccc2C(F)(F)F)c1 [Flutolanil] | 1 |  |
| N#Cc1nn(-c2c(Cl)cc(C(F)(F)F)cc2Cl)c(N)c1[S+]([O-])C(F)(F)F (stereo not drawn) [Fipronil] | 1 |  |
| CC(C)Oc1cc(-n2nc(C(C)(C)C)oc2=O)c(Cl)cc1Cl [Oxadiazon] | 1 |  |
| Cc1cc(C)nc(Nc2ccccc2)n1 [Pyrimethanil] | 0 |  |
| CO/N=C(/C1=NOCCO1)c1ccccc1Oc1ncnc(Oc2ccccc2Cl)c1F [Fluoxastrobin] | 1 |  |
| CCOc1cc(C(C)(C)C)ccc1C1COC(c2c(F)cccc2F)=N1 (stereo not drawn) [Etoxazole] | 1 |  |
| CC(C)(C)c1cc(O)c(C(C)(C)C)cc1O [2,5-Di-tert-butylbenzene-1,4-diol] | 1 |  |
| C[C@@H]1[C@@H](c2ccc(Cl)cc2)SC(=O)N1C(=O)NC1CCCCC1 [Hexythiazox] | 1 |  |
| COP(=S)(OC)Oc1ccc([N+](=O)[O-])c(C)c1 [Fenitrothion] | 0* |  |
| COP(=O)(OC)C(O)C(Cl)(Cl)Cl (stereo not drawn) [Trichlorfon] | 0 |  |
| CCCCCCCCCCCC[N+](C)(C)C.[Cl-] [Dodecyltrimethylammonium chloride] | 0* |  |
| CCCCCCCCCC[N+](C)(C)CCCCCCCCCC.[Cl-] [Didecyldimethylammonium chloride] | 1 |  |
| COC(=O)N(OC)c1ccccc1COc1ccn(-c2ccc(Cl)cc2)n1 [Pyraclostrobin] | 1 |  |
| CCCCOC(=O)c1ccccc1C(=O)OCCCC [Dibutyl phthalate] | 0* |  |
| CO/N=C(/C(=O)OC)c1ccccc1COc1ccccc1C [Kresoxim-methyl] | 0* |  |
| CCC[CH2][Sn]([Cl])([CH2]CCC)[CH2]CCC [Tributyltin chloride] |  | 1 |
| CCOC(=O)N1CCC(=C2c3ccc(Cl)cc3CCc3cccnc32)CC1 [Loratadine, reference compound] | 1 |  |
| COc1ccc(-c2ccccc2)cc1NNC(=O)OC(C)C [Bifenazate] | 1 |  |
| Oc1cccc2cccnc12 [8-Hydroxyquinoline] |  | 0 |
| CCC(=O)C=Cc1ccc(OC)cc1 [1-(4-Methoxyphenyl)-1-pentene-3-one] | 0 |  |
